A melting point compilation (Tetko et al.; mined from patent text by program, amines drawn as free bases though some values may be those of a salt)

SMILES	melting point [°C]
CCOC(=O)c1sc(NC(=O)c2cc(-c3cccs3)ccc2O)nc1-c1ccccc1	213 to 214
CC(C)n1c(C=O)c(-c2ccc(F)cc2)c(-c2ccc(F)cc2)c1C(=O)NCc1ccc(S(C)(=O)=O)cc1	203 to 204
COc1cc2ncnc(N3CCC(CCBr)CC3)c2cc1OC	191
Nc1nc(N)c2ncn(CC/C=C/P(=O)(O)O)c2n1	> 325
CCCCCOc1ccc(C(=O)NCCCCCCCNC(=O)c2ccc(OCCCCC)cc2)cc1	155 to 156
O=C(O)C1=Cc2cc(Cl)cc(F)c2OC1C(F)(F)F (stereo unspecified)	191 to 193
CC(C(=O)O)(c1ccc(N2CCOCC2)cc1)c1ccc(N2CCOCC2)cc1	217 to 223
C=C(CC(NC(=O)OC(C)(C)C)C(=O)OCC)CC(NC=O)(C(=O)OCC)C(=O)OCC (stereo unspecified)	68
COc1ccc(CSCC(C(=O)O)C(F)(F)F)cc1 (stereo unspecified)	72 to 74
CCCN(CCC)CC1CCn2c(nc3ccccc32)S1 (stereo unspecified)	82 to 84
COc1ccc(C=CC(=O)Nc2ccc(C)cc2C(=O)O)cc1OC	190 to 191
Clc1ncc(Cl)c(NC2CCCCC2)n1	93 to 94
CCOC(=O)CCCOc1nn2c(-c3ccc(OC)cc3)nnc2c2ccccc12	114 to 117
CN(C)C=NS(=O)(=O)CCC(C)(C)CC#N	53 to 54
CCCCCCn1c(=O)n(C)c(=O)c2cnn(C)c21	106 to 107
O=C(O)Cc1ccccc1OCCCc1cn(-c2ccc(C(F)(F)F)cn2)nc1C1CCCCC1	127 to 128
COC(=O)NNC(=S)Cc1cc(OC)c(OC)c(OC)c1	134
N#CC(=NOS(=O)(=O)CCCCl)c1cccs1	56 to 58
Cc1nnc(SCC(=O)C23CC4CC(CC(C4)C2)C3)n1Cc1ccc(Cl)cc1	158 to 159
O=C(Cc1nnn[nH]1)OCc1ccccc1	72 to 73
NC(=O)Cc1cc(Oc2ccc3c(ccn3C(=O)Nc3ccc(N4CCS(=O)(=O)CC4)c(C(F)(F)F)c3)c2)ncn1	284 to 285

SMILES	melting point [°C]
CON=C(C(N)=O)c1cnccn1	188 to 190
O=C(Nc1cnc2c(c1)CCCC2)C(Cl)(Cl)Cl	157 to 159
N#Cc1cc2c3c(cccc3c1N1CCCCC1)C(=O)N(O)C2=O	> 250
C[C@H]1OC(=O)N[C@@H]1C(=O)NCCO[N+](=O)[O-]	81.5 to 82.5
O=C(OCc1ccccc1)c1ccc(OC(=O)c2ccc(C(=O)Oc3ccc(C(=O)OCc4ccccc4)cc3)cc2)cc1	186 to 187
Oc1c(Br)c(Br)c(Cl)c(Br)c1Br	210 to 212
O=C(O)CCCSC=CS(=O)(=O)CCCC(=O)O	120
O=C(Nc1cccc(C(F)(F)F)c1)N1COc2cc(O)ccc21	173 to 174
O=C(CCC(=O)N1CCC[C@H]1C(=O)O)c1cccs1	100 to 102
CCCc1cc(C(=O)OCC)ccc1O	78 to 79
CC(C)(OC(=O)C1C2CCC(C2)C1C(F)(F)F)C(F)(F)F (stereo unspecified)	87 to 90
CC(=O)Nc1cc([N+](=O)[O-])c(C(=O)O)c([N+](=O)[O-])c1O	199 to 203
COC(=O)CCC(=O)CBr	12 to 15
NS(=O)(=O)c1ccc(-c2oc3ccc(F)cc3c(=S)c2-c2ccc(F)cc2)cc1	224 to 225
Cc1cc(NC2CCCCC2)c2[nH]ncc2n1	287 to 289
O[C@H](COc1cccc2[nH]ccc12)CN1CCC(c2c[nH]c3cc(C(F)(F)F)ccc23)CC1	100 to 105
Cc1cnc(N2CCN(CC[C@H]3CC[C@H](NC(=O)CC4CCOCC4)CC3)CC2)c2c1OCC2	199
CCC(C)(C#N)NC(=O)Cc1c(C)cc(C)cc1C (stereo unspecified)	155 to 157
CC(C)CCC(C)Oc1c(-c2ccc(S(C)(=O)=O)cc2)cnn(-c2ccc(F)cc2)c1=O (stereo unspecified)	102 to 103
CC(C#N)c1cc(O)cc2cc(-c3ccc(O)cc3)oc12 (stereo unspecified)	183 to 185
CC1(C)CCC(O)(c2ccc(=O)[nH]c2)CC1	210 to 211

SMILES	melting point [°C]
CN(C)c1ccc(-n2c(CC(=O)O)c(C(=O)O)c3cc(Oc4ccc(OC(F)(F)F)cc4)ccc32)cc1	188 to 192
Cc1cc(C2(C(F)(F)F)CC(n3cncn3)=NO2)ccc1NC(=O)OC(C)(C)C (stereo unspecified)	46 to 48
CCCCNC(=O)[C@@H](C[C@H](O)[C@@H](N)CC1CCCC1)C(C)C	93 to 94
COc1ccc2c(c1OCC#N)CCCC2	50 to 51
COC(=O)c1cnc(CO)n1C(c1ccccc1)c1ccccc1	160
COc1nc(C)nc(NN)c1Cl	153 to 154
CC(C)(C)OC(=O)N1C(Cc2ccccc2)SC[C@H]1C(=O)O (stereo partly specified)	156
CCc1cc(CCCOc2c(C)cc(-c3noc(C)n3)cc2C)on1	85 to 86
O=C(NC(Cc1ccc(OCc2ccc(C(F)(F)F)cc2)cc1)C(=O)O)c1cn2ccc(-c3ccc(Cl)cc3)cc2n1 (stereo unspecified)	263
CCOC(=O)NC(=N)c1ccc(N2CCN(c3ccc(CCC(=O)OC)cc3)S2(=O)=O)cc1	> 275
CCCCCCCCCCCCCCCCCCN1C(=O)CCC1=O	75.8
O=C(CCS)NC1(C(=O)O)CCCC1	127 to 128
N#Cc1cc(Br)c(O)c([N+](=O)[O-])c1	162 to 164
CC(C)(C)OC(=O)N1CCCC(Nc2cc(-c3ccc(F)c(NC(=O)c4cnc(C(C)(C)C)cn4)c3)n[nH]c2=O)C1 (stereo unspecified)	120 to 121
CC(=CC#N)Cn1sc2ccccc2c1=O	128 to 130
CCCCC12CCC3C4CCC(=O)C=C4CCC3C1CCC2(O)CC (stereo unspecified)	78 to 80
CNC(=NC#N)Nc1cccc(C(=O)NCCSCc2ccc(CN(C)C)o2)c1	140 to 142
O=C(Nc1cnc2ccccc2c1)c1cc2cc(F)ccc2n1Cc1cccc(F)c1	244 to 246
Cc1ccc(CSc2c(O)cc(C)oc2=O)cc1	134 to 135

Now from value to molecule:

melting point [°C]	SMILES
244 to 247	Cc1c(OCC(=O)O)ccc2c(=O)c3ccccc3oc12
172	O=C1N[C@H](CCl)[C@@H]1N1C(=O)c2ccccc2C1=O (relative stereo)
198 to 199	O=C(COc1cccc2ccccc12)c1cc(O)c(O)c([N+](=O)[O-])c1
256 to 257	CC(C)n1nc(-c2ccc(O)cc2)c2sccc2c1=O
92 to 95	COC(=O)c1ccc(COc2cc(F)ccc2N)c(F)c1
114 to 115	Cc1nc(-c2cc(CCc3ccccc3)no2)sc1C(=O)NCc1ccccc1
194 to 195	CC1(C)OC(=S)Nc2ccc(-c3cccc(F)c3)cc21
203 to 205	O=C(Oc1cc(F)ccc1Br)c1cc2cc(CCl)ccc2oc1=O
187 to 189	COC(=O)COc1ccc2cc(-c3cnc(-c4cn(C)c5ccccc45)o3)ccc2c1
247 to 250	O=C1OC(=O)c2c1ccc1ncccc21
188 to 190	COc1cc2[nH]c(C)c(C(=O)C(=O)N3CCC(C(=O)c4ccccc4)CC3)c2cc1OC
220 to 221	CS(=O)(=O)Nc1c(C(=O)c2cccc(Cl)c2)[nH]c2ccc(Cl)cc12
85 to 87	C#CCN1C(=O)c2ccccc2C1OC (stereo unspecified)
92 to 95	COc1ccc(C(=O)N2C(=O)CCC2CCC(=O)OCc2ccccc2)cc1OCc1ccccc1 (stereo unspecified)
190 to 192	CC(=O)Nc1cccc(-c2ccc3nc(-c4cccnc4N)n(-c4ccc(CNS(=O)(=O)c5cn(C)cn5)cc4)c3n2)c1
213 to 215	Cn1c(/C=C/C(=O)Cl)c(-c2ccccc2)c2ccccc2c1=O
180 to 184	O=S(=O)(c1ccccc1)N1CCC(C(c2ccc(F)cc2)c2ccc(F)cc2)CC1
66 to 67	Cc1cccc(CCOc2ccc(C#N)cc2)n1
132 to 133	CC(=O)c1cc(F)ccc1Oc1nc2ccc([N+](=O)[O-])cc2cc1Cc1ccccc1
228	CS(=O)(=O)c1cccc(NC(=O)c2cnn3c(C(F)F)cc(-c4ccc(C(F)(F)F)c(Cl)c4)nc23)c1

melting point [°C]	SMILES
159	COc1cc(Nc2nccc(Nc3ccc(OCC(=O)O)cc3)n2)cc(OC)c1OC
140 to 142	CCN1CCN(c2nc(-c3ccc(OCCO)cc3OC)cc3ccccc23)CC1
150 to 151	O=C(O)CCCc1oc(Cl)nc1-c1ccc(Cl)cc1
267 to 269	OC1(c2ccc(Cl)c(Cl)c2)c2ccccc2C2=NCCCN21 (stereo unspecified)
119 to 120	Cc1cccc(N2CCN(CCc3c(C)nc4ccc(Cl)cn4c3=O)CC2)c1
131 to 133	CC(=O)c1cc(N2CCCC2)ccc1NC(=O)c1cccc(OCc2ccccc2)c1
168 to 169	Cc1ccc(S(=O)(=O)Nc2ccccc2CCC(=O)c2cnc3sc(C)c(C)n23)cc1
> 300	COC(=O)c1cc2ccnc(N)c2[nH]1
128 to 130	COc1ccc(-c2nn(CC3CC3)c(=O)cc2-c2ccncc2)cc1
211	CC(C)(C)OC(=O)N1CCC(OCc2ccccc2)C1CC(=O)Cn1cnc2ccc(F)c(F)c2c1=O (stereo unspecified)
162 to 165	Nc1ccccc1Cc1n[nH]c(Cl)n1
146	N#Cc1ccccc1OCC1CN=C(N)O1 (stereo unspecified)
152 to 154	CN(Nc1ccccc1COc1ccn(-c2ccc(Cl)cc2)n1)C(N)=O
126	CCC1CC(=O)N(Cc2cccc(NS(C)(=O)=O)c2)N=C1c1ccc(OC)c(OC)c1 (stereo unspecified)
265 to 266	COc1ccc2c(ccc3nc(C(=O)O)cn32)c1
177 to 179	CS(=O)(=O)c1ccc(-c2sc(-c3ccccc3Cl)nc2-c2ccc(Cl)cc2)cc1
111 to 112	Cc1ccccc1C(=O)c1nc(Cl)ccc1[N+](=O)[O-]
90 to 92	CCOC(=O)c1cc(=O)c(Sc2ccc(OC)cc2)co1
135 to 137	C[N+]1([O-])CC(c2ccccn2)C(=O)c2cc(Cl)ccc21 (stereo unspecified)
240 to 241	Nc1ncc2c(n1)-c1ccc(Cl)cc1C(c1ccccc1Cl)=NC2
